{"source": "patent US20100298141A1", "about": "“SUBSTITUTED PYRIDINE N-OXIDE HERBICIDES” (E. I. DU PONT DE NEMOURS AND COMPANY, priority 2007, published 2010)", "key": {"woolly cupgrass": {"test_system": "woolly cupgrass", "assay": "Test C pre-/postemergence test", "assay_type": "in vivo, Eriochloa villosa", "in_short": "(§1)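 Test chemicals were formulated with surfactant in a non-phytotoxic solvent and sprayed both on freshly planted seeds (preemergence) and on 1- to 4-leaf plants of 2–18 cm (postemergence). Flooded-paddy pots received compound directly into 3 cm of standing water, maintained for the test.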"}, "green foxtail": {"test_system": "green foxtail", "assay": "Test C pre-/postemergence test", "assay_type": "in vivo, Setaria viridis", "in_short": "as §1"}, "duck salad": {"test_system": "duck salad", "assay": "Test C flooded paddy test", "assay_type": "in vivo, Heteranthera limosa", "settings": "Flood", "in_short": "(§2)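 Flooded 3 cm over soil; compound into paddy water; depth kept constant. Greenhouse 13–15 d.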"}, "wheat": {"test_system": "wheat", "assay": "Test C pre-/postemergence test", "assay_type": "in vivo, Triticum aestivum", "in_short": "as §1"}, "crabgrass": {"test_system": "crabgrass", "assay": "Test A pre-/postemergence greenhouse test", "assay_type": "in vivo, Digitaria sanguinalis", "settings": "for Crabgrass, Large plant response rating: 0 to 100 scale", "in_short": "(§3)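 Pre: directed soil spray on seeded loam/sand. Post: foliar spray, plants 2–10 cm, 1–2 leaf stage, applied concurrently. Vehicle: non-phytotoxic solvent + surfactant. Greenhouse ~10 d; visual injury rating vs untreated controls.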"}, "umbrella sedge": {"test_system": "umbrella sedge", "assay": "Test C flooded paddy test", "assay_type": "in vivo, Cyperus difformis", "settings": "Flood", "in_short": "as §2"}, "blackgrass": {"test_system": "blackgrass", "assay": "Test C pre-/postemergence test", "assay_type": "in vivo, Alopecurus myosuroides", "in_short": "as §1"}, "redroot pigweed": {"test_system": "redroot pigweed", "assay": "Test A pre-/postemergence greenhouse test", "assay_type": "in vivo, Amaranthus retroflexus", "settings": "for Pigweed plant response rating: 0 to 100 scale", "in_short": "as §3"}, "morningglory": {"test_system": "morningglory", "assay": "Test A pre-/postemergence greenhouse test", "assay_type": "in vivo, Ipomoea spp.", "settings": "for Morningglory plant response rating: 0 to 100 scale", "in_short": "as §3"}, "yellow nutsedge": {"test_system": "yellow nutsedge", "assay": "Test C pre-/postemergence test", "assay_type": "in vivo, Cyperus esculentus", "in_short": "as §1"}, "wild oat": {"test_system": "wild oat", "assay": "Test C pre-/postemergence test", "assay_type": "in vivo, Avena fatua", "in_short": "as §1"}, "Italian ryegrass": {"test_system": "Italian ryegrass", "assay": "Test C pre-/postemergence test", "assay_type": "in vivo, Lolium multiflorum", "in_short": "as §1"}, "eastern black nightshade": {"test_system": "eastern black nightshade", "assay": "Test C pre-/postemergence test", "assay_type": "in vivo, Solanum ptycanthum", "in_short": "as §1"}, "corn": {"test_system": "corn", "assay": "Test C pre-/postemergence test", "assay_type": "in vivo, Zea mays", "in_short": "as §1"}, "Goosegrass": {"test_system": "Goosegrass", "assay": "Test C pre-/postemergence test", "assay_type": "in vivo, Eleusin indica", "in_short": "as §1"}, "common ragweed": {"test_system": "common ragweed", "assay": "Test C pre-/postemergence test", "assay_type": "in vivo, Ambrosia elation", "in_short": "as §1"}, "[1]": {"test_system": "common (oilseed) sunflower", "assay": "Test C pre-/postemergence test", "assay_type": "in vivo, Helianthus annuus", "in_short": "as §1"}, "[2]": {"settings": "62 g ai/ha, Preemergence, scale 0 to 100"}, "[3]": {"settings": "125 g ai/ha, preemergence, scale 0 (no effect) to 100 (complete control)"}, "[4]": {"settings": "Preemergence, 31 g ai/ha, scale 0 to 100 (0 no effect, 100 complete control)"}, "[5]": {"settings": "preemergence, 250 g ai/ha, scale 0 (no effect) to 100 (complete control)"}, "[6]": {"settings": "31 g ai/ha, scale 0 to 100 (0 no effect, 100 complete control)"}, "[7]": {"settings": "62 g ai/ha, scale 0 to 100 (0 no effect, 100 complete control)"}, "[8]": {"settings": "125 g ai/ha, scale 0 to 100, 0 no effect, 100 complete control, 13 to 15 days"}, "[9]": {"settings": "250 g ai/ha, scale 0 to 100, 0 no effect, 100 complete control, 13 to 15 days"}, "[10]": {"settings": "Postemergence, 125 g ai/ha, 0 to 100 scale where 0 is no effect and 100 is complete control"}, "[11]": {"settings": "Postemergence, 500 g ai/ha, 0 is no effect, 100 is complete control"}, "[12]": {"settings": "Preemergence, 125 g ai/ha, 0 no effect, 100 complete control"}, "[13]": {"settings": "Preemergence, 500 g ai/ha, 0 no effect, 100 complete control"}}}
{"smiles": "CC(C)c1cc[n+]([O-])c([S+]([O-])Cc2c(C(F)(F)F)nn(C)c2OC(F)F)c1", "note": "(centres unmarked) [Compound 109]", "values": [{"measurement": "Cupgrass, Woolly plant response rating", "setting": "woolly cupgrass; [2]", "value": 95}, {"measurement": "Cupgrass, Woolly plant response rating", "setting": "woolly cupgrass; [3]", "value": 98}, {"measurement": "Plant response rating, Cupgrass, Woolly", "setting": "woolly cupgrass; [4]", "value": 70}, {"measurement": "Cupgrass, Woolly plant response rating", "setting": "woolly cupgrass; [5]", "value": 98}, {"measurement": "Foxtail, Green plant response rating", "setting": "green foxtail; [2]", "value": 95}, {"measurement": "Foxtail, Green plant response rating", "setting": "green foxtail; [3]", "value": 100}, {"measurement": "Plant response rating, Foxtail, Green", "setting": "green foxtail; [4]", "value": 50}, {"measurement": "Foxtail, Green plant response rating", "setting": "green foxtail; [5]", "value": 100}, {"measurement": "Plant response rating, Ducksalad", "setting": "duck salad; [6]", "value": 0}, {"measurement": "Plant response rating, Ducksalad", "setting": "duck salad; [7]", "value": 40}, {"measurement": "Plant response rating, Ducksalad", "setting": "duck salad; [8]", "value": 45}, {"measurement": "Plant response rating, Ducksalad", "setting": "duck salad; [9]", "value": 65}, {"measurement": "Wheat plant response rating", "setting": "wheat; [2]", "value": 50}, {"measurement": "Wheat plant response rating", "setting": "wheat; [3]", "value": 65}, {"measurement": "Plant response rating, Wheat", "setting": "wheat; [4]", "value": 10}, {"measurement": "Wheat plant response rating", "setting": "wheat; [5]", "value": 100}, {"measurement": "Plant response rating, Crabgrass, Large", "setting": "crabgrass; [10]", "value": 60}, {"measurement": "Crabgrass, Large plant response rating", "setting": "crabgrass; [11]", "value": 90}, {"measurement": "Crabgrass, Large plant response rating", "setting": "crabgrass; [12]", "value": 90}, {"measurement": "Crabgrass, Large plant response rating", "setting": "crabgrass; [13]", "value": 100}, {"measurement": "Plant response rating, Sedge, Umbrella", "setting": "umbrella sedge; [6]", "value": 0}, {"measurement": "Plant response rating, Sedge, Umbrella", "setting": "umbrella sedge; [7]", "value": 0}, {"measurement": "Plant response rating, Sedge, Umbrella", "setting": "umbrella sedge; [8]", "value": 50}, {"measurement": "Plant response rating, Sedge, Umbrella", "setting": "umbrella sedge; [9]", "value": 75}, {"measurement": "Blackgrass plant response rating", "setting": "blackgrass; [2]", "value": 70}, {"measurement": "Blackgrass plant response rating", "setting": "blackgrass; [3]", "value": 80}, {"measurement": "Plant response rating, Blackgrass", "setting": "blackgrass; [4]", "value": 40}, {"measurement": "Blackgrass plant response rating", "setting": "blackgrass; [5]", "value": 80}, {"measurement": "Plant response rating, Pigweed", "setting": "redroot pigweed; [10]", "value": 60}, {"measurement": "Pigweed plant response rating", "setting": "redroot pigweed; [11]", "value": 90}, {"measurement": "Pigweed plant response rating", "setting": "redroot pigweed; [12]", "value": 100}, {"measurement": "Pigweed plant response rating", "setting": "redroot pigweed; [13]", "value": 100}, {"measurement": "Plant response rating, Morningglory", "setting": "morningglory; [10]", "value": 60}, {"measurement": "Morningglory plant response rating", "setting": "morningglory; [11]", "value": 90}, {"measurement": "Morningglory plant response rating", "setting": "morningglory; [12]", "value": 60}, {"measurement": "Morningglory plant response rating", "setting": "morningglory; [13]", "value": 100}, {"measurement": "Nutsedge, Yellow plant response rating", "setting": "yellow nutsedge; [2]", "value": 80}, {"measurement": "Nutsedge, Yellow plant response rating", "setting": "yellow nutsedge; [3]", "value": 98}, {"measurement": "Plant response rating, Nutsedge, Yellow", "setting": "yellow nutsedge; [4]", "value": 80}, {"measurement": "Nutsedge, Yellow plant response rating", "setting": "yellow nutsedge; [5]", "value": 100}, {"measurement": "Oat, Wild plant response rating", "setting": "wild oat; [2]", "value": 70}, {"measurement": "Oat, Wild plant response rating", "setting": "wild oat; [3]", "value": 90}, {"measurement": "Plant response rating, Oat, Wild", "setting": "wild oat; [4]", "value": 50}, {"measurement": "Oat, Wild plant response rating", "setting": "wild oat; [5]", "value": 98}, {"measurement": "Ryegrass, Italian plant response rating", "setting": "Italian ryegrass; [2]", "value": 0}, {"measurement": "Ryegrass, Italian plant response rating", "setting": "Italian ryegrass; [3]", "value": 0}, {"measurement": "Plant response rating, Ryegrass, Italian", "setting": "Italian ryegrass; [4]", "value": 0}, {"measurement": "Ryegrass, Italian plant response rating", "setting": "Italian ryegrass; [5]", "value": 0}, {"measurement": "Nightshade plant response rating", "setting": "eastern black nightshade; [2]", "value": 80}, {"measurement": "Nightshade plant response rating", "setting": "eastern black nightshade; [3]", "value": 95}, {"measurement": "Plant response rating, Nightshade", "setting": "eastern black nightshade; [4]", "value": 20}, {"measurement": "Nightshade plant response rating", "setting": "eastern black nightshade; [5]", "value": 100}, {"measurement": "Corn plant response rating", "setting": "corn; [2]", "value": 70}, {"measurement": "Corn plant response rating", "setting": "corn; [3]", "value": 95}, {"measurement": "Plant response rating, Corn", "setting": "corn; [4]", "value": 50}, {"measurement": "Corn plant response rating", "setting": "corn; [5]", "value": 98}, {"measurement": "Goosegrass plant response rating", "setting": "Goosegrass; [2]", "value": 100}, {"measurement": "Goosegrass plant response rating", "setting": "Goosegrass; [3]", "value": 100}, {"measurement": "Plant response rating, Goosegrass", "setting": "Goosegrass; [4]", "value": 100}, {"measurement": "Goosegrass plant response rating", "setting": "Goosegrass; [5]", "value": 100}, {"measurement": "Ragweed plant response rating", "setting": "common ragweed; [2]", "value": 50}, {"measurement": "Ragweed plant response rating", "setting": "common ragweed; [3]", "value": 55}, {"measurement": "Plant response rating, Ragweed", "setting": "common ragweed; [4]", "value": 50}, {"measurement": "Ragweed plant response rating", "setting": "common ragweed; [5]", "value": 80}, {"measurement": "Sunflower plant response rating", "setting": "[1]; [2]", "value": 50}, {"measurement": "Sunflower plant response rating", "setting": "[1]; [3]", "value": 55}, {"measurement": "Plant response rating, Sunflower", "setting": "[1]; [4]", "value": 50}, {"measurement": "Sunflower plant response rating", "setting": "[1]; [5]", "value": 75}]}
